Measurements: patent US20250120988A1, “SMALL MOLECULE COMPOUND FOR TREATING ISCHEMIC STROKE, ITS PREPARATION METHOD, AND APPLICATION” (SHANGHAI SIXTH PEOPLE'S HOSPITAL, priority 2023, published 2025)

Experiments:
[1] = target: T1, GluN1+NR2B (Homo sapiens, UniProt Q05586+Q13224); test: Whole-cell patch clamp, blocking of GluN1+NR2B NMDAR current in CHO cells; assay type: cell-based; conditions: 100 μM NMDA and 1 μM glycine, read-out: IC50 of competitive antagonism against glutamate binding GluN1+NR2B currents
T1 construct: expressed in transfected cells; host or cells: CHO cells
Experimental: Figure a illustrates LK-2 concentration-dependent blocking of signal of GluN1+GluN2A and GluN1+GluN2B subtypes of NMDAR currents (recorded from the same CHO cell) in patch clamp experiments, with 100 μM NDMA and 1 μM glycine used to activate NMDAR currents. LK-2 concentrations were 1, 10, 100, and 500 μM in sequence. Figure b illustrates the dose-response curves fitted based on the current amplitudes recorded in Figure a, with IC50 representing the half-maximal inhibitory concentration. Smaller IC50 values indicate stronger blocking effects of the compound.
[drawing 3] • 2. Electrophysiological experiments refer to the use of patch clamp techniques to overexpress ASICs (ASIC1a) and NMDARs (GluNR1+NR2A or GluNR1+NR2B) in CHO cell lines (Chinese hamster ovary cells), with the above-mentioned proteins carrying GFP green fluorescent protein for identification under fluorescence microscopy. The synthesized small molecules are separately tested for their blocking effects on the currents generated by the two types of receptors, and the IC50 values are calculated. • 2.1 The experimental steps of the membrane clamp technique are as follows.
Whole-cell patch clamp recordings were performed on neurons or CHO cells cultured in a cell-culture dish mounted on a fixed stage upright microscope. The recording electrode (resistance 4-6 MΩ) was made of 1.5 mm borosilicate glass. […]

[2] = system: CHO cells transfected with ASIC1a; test: PI cell death staining of ASIC1a-transfected CHO cells treated with glutamate at pH 7; assay type: cell-based, Chinese hamster; conditions: 10 μM; 500 μM glutamate, pH 7, 1 hour
Experimental: Figure a illustrates cortical neurons staining from wild-type (ASIC1a+/+) and gene-deficient (ASIC1a−/−) mice primary cultures in the calcein-PI staining experiment. Blue green represents viable cells, and red represents dead cell nuclei. 10 μM CGS19755 and 10 μM LK-2 were added respectively in the cell culture medium under pH 7.0 conditions with OGD to be treated for 1 hour. Figure c illustrates, after being treated in the same experimental groups as Figure a, the analysis of each group of LDH of relative release levels. Figure d illustrates PI staining of ASIC1a-transfected CHO cells after 1 hour of treatment with pH 7.0 and 500 μM glutamate (Glu). […]
Taking into consideration that in addition to ASIC1a, neurons also express multiple membrane proteins that can be activated and lead to cell death during OGD, in order to more accurately verify that cell death is caused by glutamate activation of ASIC1a and that LK-2 indeed competitively antagonizes the glutamate so as to reduce cell death, we conducted the following experiment: CHO cells transfected with ASIC1a-GFP were divided into a control group (500 μM glutamate) and a drug intervention group (500 μM glutamate+10 μM LK-2). […] Live and dead cell nuclei were determined by observing under a 40× objective using excitation wavelengths of 488 nm and 546 nm. The number of stained cell nuclei was counted using Image-J software.

T1 sequence (Q13224 27-1484, other chains not shown): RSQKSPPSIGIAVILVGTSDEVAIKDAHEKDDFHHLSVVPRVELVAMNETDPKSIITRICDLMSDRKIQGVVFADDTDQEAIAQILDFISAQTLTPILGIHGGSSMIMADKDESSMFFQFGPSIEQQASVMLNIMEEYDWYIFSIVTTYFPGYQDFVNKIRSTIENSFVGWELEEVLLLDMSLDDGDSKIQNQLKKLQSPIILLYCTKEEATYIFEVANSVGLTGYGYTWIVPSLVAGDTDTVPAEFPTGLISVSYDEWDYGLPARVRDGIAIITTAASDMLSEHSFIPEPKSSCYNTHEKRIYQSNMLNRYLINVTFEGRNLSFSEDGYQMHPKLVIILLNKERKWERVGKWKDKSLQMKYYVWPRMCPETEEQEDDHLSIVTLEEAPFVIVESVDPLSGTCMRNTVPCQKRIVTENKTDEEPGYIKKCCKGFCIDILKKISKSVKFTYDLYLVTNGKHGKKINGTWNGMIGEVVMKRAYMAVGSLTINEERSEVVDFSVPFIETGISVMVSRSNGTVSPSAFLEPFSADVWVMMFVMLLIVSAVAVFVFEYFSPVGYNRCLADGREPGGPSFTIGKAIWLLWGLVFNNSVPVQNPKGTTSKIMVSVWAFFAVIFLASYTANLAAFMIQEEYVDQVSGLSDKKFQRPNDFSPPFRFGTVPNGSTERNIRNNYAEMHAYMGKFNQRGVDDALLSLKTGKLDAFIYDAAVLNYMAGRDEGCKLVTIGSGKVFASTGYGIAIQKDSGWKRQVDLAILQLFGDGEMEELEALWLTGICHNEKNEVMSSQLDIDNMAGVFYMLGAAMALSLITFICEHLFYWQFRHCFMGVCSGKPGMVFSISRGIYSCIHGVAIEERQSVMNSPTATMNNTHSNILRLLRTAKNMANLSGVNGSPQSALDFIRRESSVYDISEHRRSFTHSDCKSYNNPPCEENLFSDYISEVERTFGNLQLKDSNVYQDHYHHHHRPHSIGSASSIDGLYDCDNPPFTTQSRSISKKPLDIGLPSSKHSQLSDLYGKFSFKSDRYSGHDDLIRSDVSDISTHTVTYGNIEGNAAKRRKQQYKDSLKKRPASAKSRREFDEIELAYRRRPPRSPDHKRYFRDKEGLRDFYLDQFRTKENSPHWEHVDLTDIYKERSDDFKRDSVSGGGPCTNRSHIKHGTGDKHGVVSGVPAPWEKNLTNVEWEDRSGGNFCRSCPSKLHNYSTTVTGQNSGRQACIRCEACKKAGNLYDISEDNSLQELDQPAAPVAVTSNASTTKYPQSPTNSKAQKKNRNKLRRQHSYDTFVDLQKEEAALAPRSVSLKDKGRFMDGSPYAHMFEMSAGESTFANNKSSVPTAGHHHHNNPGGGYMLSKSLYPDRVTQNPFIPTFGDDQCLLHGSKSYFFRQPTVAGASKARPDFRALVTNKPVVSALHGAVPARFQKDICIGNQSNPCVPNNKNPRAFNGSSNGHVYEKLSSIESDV

IC50 [1]: 386 ± 109 µM
Compound: O=C(O)C1CN(C(c2ccccc2)P(=O)(O)O)CCN1 (centres unmarked) [LK-2]
reduction of death rate of transfected cells [2]: 40%
